Source: patent US9458198B1, “Cyclic peptide-based NPR-B agonists” (priority 2009, dated 2016)
pEC50: −log10 of the molar value. Like-named read-outs stand apart in the source and are kept apart here. Where a SMILES comes first, the peptide text is derived from it. Bridges are numbered along the chain shown (N, C = ends). [ ]: non-standard residue; d: D form. The star is where a group is joined. Hexanoyl = CCCCCC(=O)*

Experiments:
[1] = test system: human colon adenocarcinoma cells; conditions: 1 mM, within 24 h; cited from earlier work
NPR-B = molecular target: T1, NPR-B (Homo sapiens, UniProt P20594); experiment: NPR-B induced production of cyclic GMP in GTM-3 cells; format: cell-based
T1 construct: a functional assay using endogenously NPR-B expressing GTM-3 cells; endogenous in cells; host or cells: GTM-3 (transformed human trabecular meshwork cells)
T1 sequence (P20594 23-1047): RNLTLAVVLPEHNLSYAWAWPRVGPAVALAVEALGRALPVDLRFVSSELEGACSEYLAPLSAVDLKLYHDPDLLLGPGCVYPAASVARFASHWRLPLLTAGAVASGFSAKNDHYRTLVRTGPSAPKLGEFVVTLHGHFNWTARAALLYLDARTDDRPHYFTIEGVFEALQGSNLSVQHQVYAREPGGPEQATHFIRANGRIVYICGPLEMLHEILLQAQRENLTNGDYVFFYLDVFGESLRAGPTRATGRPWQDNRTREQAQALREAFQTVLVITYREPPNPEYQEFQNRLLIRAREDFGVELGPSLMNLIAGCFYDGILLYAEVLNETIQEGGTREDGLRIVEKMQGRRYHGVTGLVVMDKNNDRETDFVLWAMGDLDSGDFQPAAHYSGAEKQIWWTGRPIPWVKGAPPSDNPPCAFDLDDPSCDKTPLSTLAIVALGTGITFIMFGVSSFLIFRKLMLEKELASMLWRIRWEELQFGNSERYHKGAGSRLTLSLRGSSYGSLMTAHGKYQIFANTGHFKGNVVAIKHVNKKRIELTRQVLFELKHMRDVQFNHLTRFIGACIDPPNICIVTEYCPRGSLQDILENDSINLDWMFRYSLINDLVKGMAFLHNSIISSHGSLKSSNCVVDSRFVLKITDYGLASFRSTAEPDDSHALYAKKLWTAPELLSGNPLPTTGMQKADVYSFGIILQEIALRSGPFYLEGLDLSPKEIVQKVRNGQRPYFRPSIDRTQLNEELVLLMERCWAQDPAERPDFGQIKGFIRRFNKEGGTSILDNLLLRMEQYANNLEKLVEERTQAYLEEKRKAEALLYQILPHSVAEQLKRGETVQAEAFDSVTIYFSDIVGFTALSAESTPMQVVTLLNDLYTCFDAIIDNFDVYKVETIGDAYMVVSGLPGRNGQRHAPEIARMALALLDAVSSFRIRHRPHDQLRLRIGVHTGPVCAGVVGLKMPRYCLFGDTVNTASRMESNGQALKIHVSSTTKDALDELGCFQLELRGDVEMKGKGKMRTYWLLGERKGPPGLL
Summary of the method: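 GTM-3 cells with endogenous NPR-B were washed and preincubated 15 min at room temperature in medium with 1 mM IBMX. Compounds were tested at final 45 μM to 20 nM; dose-dependent cGMP production gave Emax and EC50.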

[2] = GTM-3 cells, group needs both EC50 and Emax criteria, checked A then B then C, read-out: Activity (group): NPR-B activation, EC50 and Emax (CNP = 100%)
[3] = Activity (group): NPR-B activation, EC50 and Emax (CNP = 100%)

pEC50 (NPR-B; [2])	Structure (SMILES)	further results
–	CC[C@H](C)[C@@H]1NC(=O)[C@H](CCCNC(=N)N)NC(=O)[C@H](CC(=O)O)NC(=O)[C@H](CCSC)NC(=O)[C@H](CCCNC(=N)N)NC(=O)CNC(=O)CNC(=O)[C@H](Cc2ccccc2)NC(=O)[C@@H](NC(=O)[C@H](CO)NC(=O)[C@H](CO)NC(=O)[C@H](CCCNC(=N)N)NC(=O)[C@H](CCCNC(=N)N)NC(=O)[C@H](CC(C)C)NC(=O)[C@@H](N)CO)CSSC[C@@H](C(=O)N[C@@H](CC(N)=O)C(=O)N[C@@H](CO)C(=O)N[C@@H](Cc2ccccc2)C(=O)N[C@@H](CCCNC(=N)N)C(=O)N[C@@H](Cc2ccc(O)cc2)C(=O)O)NC(=O)CNC(=O)[C@H](CC(C)C)NC(=O)CNC(=O)[C@H](CO)NC(=O)[C@H](CCC(N)=O)NC(=O)[C@H](C)NC(=O)CNC1=O [ANP, atrial natriuretic peptide]	decrease in cell number [1]: up to 97%
> 5.30	CC[C@H](C)[C@@H]1NC(=O)[C@H](CCCNC(=N)N)NC(=O)[C@H](CC(=O)O)NC(=O)[C@H](CC(C)C)NC(=O)[C@H](CCCNC(=N)N)NC(=O)[C@H](CC(C)C)NC(=O)CNC(=O)[C@H](Cc2ccccc2)NC(=O)[C@@H](Cc2c[nH]cn2)NC(=O)[C@@H](NC(=O)[C@@H](N)CCSC)CSSC[C@@H](C(N)=O)NC(=O)[C@H](CO)NC1=O [compound 42] (H-MC[dH]FGLRLDRISC-NH2; disulfide 2-13)	–
> 5.30	CC[C@H](C)[C@@H]1NC(=O)[C@H](CCCNC(=N)N)NC(=O)[C@H](CC(=O)O)NC(=O)[C@H](CC(C)C)NC(=O)[C@H](CCCCN)NC(=O)[C@H](CC(C)C)NC(=O)CNC(=O)[C@H](Cc2ccccc2)NC(=O)[C@@H](C)NC(=O)[C@@H](NC(=O)[C@@H](N)CCSC)CSSC[C@@H](C(N)=O)NC(=O)[C@H](CO)NC1=O [compound 38]	–
> 5.30	CC[C@H](C)[C@@H]1NC(=O)[C@H](CCCNC(=N)N)NC(=O)[C@H](CC(=O)O)NC(=O)[C@H](CC(C)C)NC(=O)[C@H](CCCCN)NC(=O)[C@H](CC(C)C)NC(=O)CNC(=O)[C@H](Cc2ccccc2)NC(=O)[C@H](Cc2c[nH]cn2)NC(=O)[C@@H](NC(=O)[C@@H](N)CCSC)CSSC[C@@H](C(N)=O)NC(=O)[C@H](CO)NC1=O [compound 7]	–
> 5.30	CSCC[C@H](N)C(=O)N[C@H]1CSSC[C@@H](C(N)=O)NC(=O)[C@H](CO)NC(=O)[C@H](C(C)C)NC(=O)[C@H](CCCNC(=N)N)NC(=O)[C@H](CC(=O)O)NC(=O)[C@H](CC(C)C)NC(=O)[C@H](CCCCN)NC(=O)[C@H](CC(C)C)NC(=O)CNC(=O)[C@H](Cc2ccccc2)NC(=O)[C@@H](C)NC1=O [compound 57] (H-MC[dA]FGLKLDRVSC-NH2; disulfide 2-13)	–
–	CC[C@H](C)[C@@H]1NC(=O)[C@H](CCCNC(=N)N)NC(=O)[C@H](CC(=O)O)NC(=O)[C@H](CC(C)C)NC(=O)[C@H](CCCCN)NC(=O)[C@H](CC(C)C)NC(=O)CNC(=O)[C@H](Cc2ccccc2)NC(=O)[C@@H](C)NC(=O)[C@@H](NC(=O)CCC(C)C)CSSC[C@@H](C(N)=O)NC(=O)[C@H](CO)NC1=O [compound 64]	pEC50 (NPR-B; [3]): > 6.00
> 5.30	CCCCCC(=O)N[C@H]1CSSC[C@@H](C(N)=O)NC(=O)[C@H](CO)NC(=O)[C@H]([C@@H](C)CC)NC(=O)[C@H](CCCNC(=N)N)NC(=O)[C@H](CC(=O)O)NC(=O)[C@H](CC(C)C)NC(=O)[C@H](CCCCN)NC(=O)[C@H](C)NC(=O)CNC(=O)[C@H](Cc2ccccc2)NC(=O)[C@@H](C)NC1=O [compound 101] (Hexanoyl-C[dA]FGAKLDRISC-NH2; disulfide 1-12)	–
–	CC[C@H](C)[C@@H]1NC(=O)[C@H](CCCNC(=N)N)NC(=O)[C@H](CC(=O)O)NC(=O)[C@H](CC(C)C)NC(=O)[C@@H]2CCCN2C(=O)[C@H](CC(C)C)NC(=O)CNC(=O)[C@H](Cc2ccccc2)NC(=O)[C@@H](Cc2c[nH]cn2)NC(=O)[C@@H](NC(=O)[C@@H](N)CCSC)CSSC[C@@H](C(N)=O)NC(=O)[C@H](CO)NC1=O [compound 41] (H-MC[dH]FGLPLDRISC-NH2; disulfide 2-13)	pEC50 (NPR-B; Activity (group): NPR-B activation, EC50 and Emax (CNP = 100%), GTM-3 cells, group needs both EC50 and Emax criteria, checked A then B then C): > 5.30
> 5.30	CC[C@H](C)[C@@H]1NC(=O)[C@H](CCCNC(=N)N)NC(=O)[C@H](CC(=O)O)NC(=O)[C@H](C(C)C)NC(=O)[C@H](CCCCN)NC(=O)[C@H](CC(C)C)NC(=O)CNC(=O)[C@H](Cc2ccccc2)NC(=O)[C@@H](C)NC(=O)[C@@H](NC(=O)[C@@H](N)CCSC)CSSC[C@@H](C(N)=O)NC(=O)[C@H](CO)NC1=O [compound 54] (H-MC[dA]FGLKVDRISC-NH2; disulfide 2-13)	–
> 5.30	CC[C@H](C)[C@@H]1NC(=O)[C@H](CCCNC(=N)N)NC(=O)[C@H](CC(=O)O)NC(=O)[C@H](CC(C)C)NC(=O)[C@H](CCCCN)NC(=O)[C@H](CC(C)C)NC(=O)CNC(=O)[C@H](Cc2ccccc2)NC(=O)CNC(=O)[C@@H](NC(=O)[C@@H](N)CCSC)CSSC[C@@H](C(N)=O)NC(=O)[C@H](CO)NC1=O [compound 17]	–
> 5.30	CC[C@H](C)[C@@H]1NC(=O)[C@H](CCCNC(=N)N)NC(=O)[C@H](CC(=O)O)NC(=O)[C@H](CC(C)C)NC(=O)[C@H](CCCCN)NC(=O)[C@H](CC(C)C)NC(=O)CNC(=O)[C@H](Cc2ccccc2)NC(=O)[C@@H](Cc2c[nH]cn2)NC(=O)[C@@H](NC(=O)[C@@H](N)CCSC)CSSC[C@@H](C(N)=O)NC(=O)[C@H](CO)NC1=O [compound 12]	–
> 5.30	CC[C@H](C)[C@@H]1NC(=O)[C@H](CCCNC(=N)N)NC(=O)[C@H](CC(=O)O)NC(=O)[C@H](CC(C)C)NC(=O)[C@H](CCCCN)NC(=O)[C@H](CC(C)C)NC(=O)CNC(=O)[C@H](Cc2ccccc2)NC(=O)[C@H](Cc2c[nH]cn2)NC(=O)[C@@H](NC(=O)[C@H](N)CCSC)CSSC[C@@H](C(N)=O)NC(=O)[C@H](CO)NC1=O [compound 10]	–
–	CC[C@H](C)[C@@H]1NC(=O)[C@H](CCCNC(=N)N)NC(=O)[C@H](CC(=O)O)NC(=O)[C@H](CC(C)C)NC(=O)[C@H](CCCCN)NC(=O)[C@H](CC(C)C)NC(=O)CNC(=O)[C@H](Cc2ccccc2)NC(=O)[C@@H](C)NC(=O)[C@@H](NC(=O)CCc2ccccc2)CSSC[C@@H](C(N)=O)NC(=O)[C@H](CO)NC1=O [compound 70]	pEC50 (NPR-B; [3]): > 6.00
–	CCCCCCCC(=O)N[C@H]1CSSC[C@@H](C(N)=O)NC(=O)[C@H](CO)NC(=O)[C@H]([C@@H](C)CC)NC(=O)[C@H](CCCNC(=N)N)NC(=O)[C@H](CC(=O)O)NC(=O)[C@H](CC(C)C)NC(=O)[C@H](CCCCN)NC(=O)[C@H](CC(C)C)NC(=O)CNC(=O)[C@H](Cc2ccccc2)NC(=O)[C@@H](C)NC1=O [compound 68]	pEC50 (NPR-B; [3]): > 6.00

Structure (SMILES)	pEC50 (NPR-B; [2])	further results
CC[C@H](C)[C@@H]1NC(=O)[C@H](CCCNC(=N)N)NC(=O)[C@H](CC(=O)O)NC(=O)[C@H](CC(C)C)NC(=O)[C@H](CCCCN)NC(=O)[C@H](CC(C)C)NC(=O)CNC(=O)[C@H](Cc2ccc(Cl)cc2)NC(=O)[C@H](Cc2c[nH]cn2)NC(=O)[C@@H](NC(=O)[C@@H](N)CCSC)CSSC[C@@H](C(N)=O)NC(=O)[C@H](CO)NC1=O [compound 29]	> 4.82	–
CC[C@H](C)[C@@H]1NC(=O)[C@H](CCCNC(=N)N)NC(=O)[C@H](CC(=O)O)NC(=O)[C@H](CC(C)C)NC(=O)[C@H](CCCCN)NC(=O)[C@H](CC(C)C)NC(=O)CNC(=O)[C@H](Cc2ccccc2)NC(=O)CCCNC(=O)[C@@H](NC(=O)[C@@H](N)CCSC)CSSC[C@@H](C(N)=O)NC(=O)[C@H](CO)NC1=O [compound 32]	> 4.82	–
